# Test results: patent US20230390235A1, “THERAPEUTIC AGENT FOR COVID-19” (priority 2020, published 2023)
# pIC50: −log10 of the molar value. Where two headings read alike, the source gives them in different places.
# What was measured:
# [1] = system: SARS-CoV-2 virus (USA_WA1/2020); assay: microbe, parasite or virus in culture; type: cell-based
# [2] = system: ACE2-expressing HEK293T cells
# [3] = system: SARS-CoV-2 S pseudotype virus (wild type: WT); type: cell-based; settings: 100 μM, ACE2-expressing HEK293T cells, GFP fluorescence, FIG. 1
# [4] = Pharmacokinetic (PK) measurement of SNJ-1945, oral, rats, LC/MS/MS; type: in vivo; settings: male, S.D., rat plasma; for AUC(0-t): read-out: AUC0-8
# Experimental: Eight-week-old male S.D. rats were used for the examination of SNJ-1945. Each animal was kept in a room at a temperature of 21.6° C. to 22.3° C., a humidity of 47.7% to 60.3%, with lighting for 12 hours/day, and a ventilation frequency of 6 to 20 times/hour. The rats were fasted from the evening of the day before administration, and feeding was resumed after the completion of blood sampling, which was conducted 8 hours after the administration. Water was taken freely.
# (§1) For the examination of SNJ-1945, four groups of 1, 3, 10, and 30 mg/kg (n=3 for each) were set. For the examination of SJA-6017, two groups of 100 mg/kg (n=3 for each) and 500 mg/kg (n=8 for each) were set.
# For SNJ-1945, methylcellulose was dissolved in water for injection to a concentration of 1 w/v %. A test substance was suspended in the resultant to prepare samples having concentrations of 0.25 mg/mL (for 1 mg/kg), 0.75 mg/mL (for 3 mg/kg), 2.5 mg/mL (for 10 mg/kg), and 7.5 mg/mL (for 30 mg/kg). The administration solution was dispensed into brown glass bottles.
# (§2) SNJ-1945 was orally administered forcibly a single time by using a gastric sonde at doses of 1, 3, 10, and 30 mg/4 mL/kg. SJA-6017 was orally administered forcibly a single time using a gastric sonde at a dose of 5 mL/kg.
# In the SNJ-1945 administration group, blood samples were taken over time from the subclavian vein 30 minutes and 1, 2, 4, and 8 hours after administration. The obtained blood was immediately centrifuged at 10000×g for 3 minutes, and plasma was collected.
# Plasma (20 μL) obtained from the SNJ-1945 administration group was placed in a polypropylene tube, methanol (20 μL) was added thereto, and an internal standard solution (SNJ-1945-d7; 100 μL) was added thereto, followed by stirring for about 5 minutes. Thereafter, centrifugation (10,000×g) was performed for 5 minutes, and 100 μL of a supernatant was transferred to another polypropylene tube. 1 mmol/L EDTA-2K (100 μL) was added, followed by stirring for about 10 seconds. The solution was set in an autosampler and measured within 72 hours.
# A Shimadzu 20AD LC System 2 (prominence UFLCXR system; Shimadzu Corporation) and a mass spectrometer (API5000; AB SCIEX) were used as measuring instruments. High-performance liquid chromatography was performed according to the following conditions. Column: CAPCELL CORE AQ, 2.7 μm, 2.1×50 mm (Shiseido Japan Co., Ltd.); column temperature: 60° C.; mobile phase A: 5 mmol/L ammonium hydrogen carbonate/l mmol/LEDTA-2K (500:1, v/v); mobile phase B: methanol; flow rate: 0.8 mL/min.
# The mass spectrometer was set according to the following conditions: ionization mode: turbo ion spray; measurement mode: multiple reaction monitoring; detection mode: negative; collision gas: N2, 6 (number of valves opened); curtain gas: N2, 15 psi, ion source gas 1: air, 80 psi; ion source gas 2: air, 80 psi; ion spray voltage: −4500 V; temperature: 500° C.; channel electron multiplier: 1800 V or 2000 V. Monitoring ions and dwell time were set as shown in Table 4 below.
# The measurement results of plasma concentration were analyzed by non-compartmental analysis in the pharmacokinetic analysis software Phoenix WinNonlin Ver. 6.3 (Pharsight Corporation as part of Certara), and each pharmacokinetic parameter was calculated in accordance with the method shown in Table 5 below.
# in vivo = assay: in vivo; design: species or system S.D. rats; settings: male, S.D., rat, po
# Experimental: Male S.D. rats weighing 160 to 210 g were used for the examination of SJA-6017. Each animal was kept in a room at a temperature of 23±2° C., a humidity of 55±10%, with lighting for 12 hours, and a ventilation frequency of 15 times/hour or more. The rats were fasted from the night before administration and feeding was resumed immediately after the administration. Water was taken freely.
# as §1
# For SJA-6017, sodium carboxymethylcellulose was dissolved in distilled water to a concentration of 0.5% (w/v). A test substance was suspended in the resultant to prepare samples having concentrations of 10% (for […]) and 2% (for 100 mg/kg).
# as §2
# In the SJA-6017 administration group, blood samples were collected from the abdominal aorta under ether anesthesia 30 minutes and 1, 2, 4 and 8 hours after administration. The resulting blood was immediately centrifuged at 5,000 rpm for 10 minutes, and plasma was collected.
# Plasma (200 μL) obtained from the SJA-6017 administration group was placed in a brown Spitz tube, and 0.01 M HCl (0.5 mL) was added thereto, and diethyl ether (3 mL) was further added, followed by shaking for 10 minutes. Thereafter, centrifugation (3,000 rpm) for 10 minutes was performed to separate the aqueous layer from the diethyl ether phase. The lower aqueous layer alone was frozen in dry-ice acetone, and the diethyl ether layer was separated into another brown Spitz tube. Thereafter, drying was conducted under reduced pressure, and acetonitrile (100 μL) and a 0.01M hydrochloric acid solution (200 μL) of 5 mM phenylhydrazine hydrochloride were added, followed by stirring and dissolving. The solution was transferred to an HPLC vial and allowed to react for 1 hour at 40° C. using a water bath. 150 μL of this sample solution was analyzed by HPLC.
# • Detector: UV absorbance spectrophotometer (measurement • wavelength: 272 nm) • Column: Capcell-pak SG-120 (250 mm) • Column temperature: 40° C. • Mobile phase: 0.02 M phosphate buffer (pH of 7.0)/acetonitrile mixture (45:55) • Flow rate: 1.0 mL/min
# Cmax and AUC0-8 were calculated from the mean plasma concentration at each time point.
# [5] = Severe acute respiratory syndrome coronavirus 2, Vero C1008, 72 h, read-out: CPE reduction (IC50)
# [6] = Severe acute respiratory syndrome coronavirus 2, Vero C1008, 72 h; read-out: CPE reduction (IC50)
compound,measurement,setting,value
CCN(CCO)CCCC(C)Nc1ccnc2cc(Cl)ccc12 (centres unmarked) [Hydroxychloroquine],pIC50,[1]; [5],5.19
CCOC(=O)[C@H]1O[C@@H]1C(=O)N[C@@H](CC(C)C)C(=O)NCCC(C)C [E64d],pIC50,[1]; read-out: CPE reduction (IC50),5.08
CCN(CC)CCCC(C)Nc1ccnc2cc(Cl)ccc12 (centres unmarked) [Chloroquine],pIC50,[1]; [5],5.69
COCCOCCOC(=O)N[C@@H](CC(C)C)C(=O)N[C@@H](Cc1ccccc1)C(=O)C(=O)NC1CC1 [SNJ-1945],pIC50,[1]; [6],5.82
same,highest concentration at which test compound did not show cytotoxicity,[2],100 µM
same,entry inhibition of pseudotype virus into cells,[3],inhibits entry
same,Cmax,[4]; single oral dose 1 mg/kg,186 ng/mL
same,AUC(0-t),[4]; single oral dose 1 mg/kg,168 ng·h/mL
same,Cmax,[4]; single oral dose 3 mg/kg,391 ng/mL
same,AUC(0-t),[4]; single oral dose 3 mg/kg,380 ng·h/mL
same,Cmax,[4]; single oral dose 10 mg/kg,553 ng/mL
same,AUC(0-t),[4]; single oral dose 10 mg/kg,691 ng·h/mL
same,Cmax,[4]; single oral dose 30 mg/kg,821 ng/mL
same,AUC(0-t),[4]; single oral dose 30 mg/kg,1170 ng·h/mL
CCC(CC)COC(=O)[C@H](C)N[P@](=O)(OC[C@H]1O[C@@](C#N)(c2ccc3c(N)ncnn23)[C@H](O)[C@@H]1O)Oc1ccccc1 [Remdesivir],pIC50,[1]; [5],4.98
CC(C)C[C@@H](C=O)NC(=O)[C@@H](NS(=O)(=O)c1ccc(F)cc1)C(C)C [SJA-6017],AUC(0-t),in vivo; 100 mg/kg,679 ng·h/mL
same,Cmax,in vivo; 100 mg/kg,284 ng/mL
same,AUC(0-t),in vivo; 500 mg/kg,1840 ng·h/mL
same,Cmax,in vivo; 500 mg/kg,348 ng/mL
same,pIC50,[1]; [6],6.68
